Laboratory results as given in PMC6271978, “1H-2,3-Dihydroperimidine Derivatives: A New Class of Potent Protein Tyrosine Phosphatase 1B Inhibitors” (Molecules, 2013).

Experiments:
SHP-1 = molecular target: T1, SHP-1 (Homo sapiens, UniProt P29350); assay: SHP-1 inhibition, OMFP substrate assay; type: biochemical; conditions: for IC50: OMFP substrate, means ± SD of three replications, PC = Na3VO4
T1 construct: made in house
Procedure: (§1) In addition to potency improvements, we investigated the selectivity of three representative compounds, namely, 1, 46 and 49 against other PTPs (TCPTP, SHP-1, SHP-2, LAR). […] Besides TCPTP, we tested the inhibitory activity of these compounds on other three homogenous enzymes SHP-1, SHP-2, and LAR [25].
(§2) A colorimetric assay to measure inhibition against PTP1B and TCPTP was performed in 96-well plates. Briefly, the tested compounds were solubilized in DMSO and serially diluted into concentrations for the inhibitory test. The assays were carried out in a final volume of 100 μL containing 50 mmol/L MOPS, pH 6.5, 2 mmol/L pNPP, 30 nmol/L GST-PTP1B or GST-TCPTP,and 2% DMSO, and the catalysis of pNPP was continuously monitored on a SpectraMax 340 microplate reader at 405 nm for 3 min at 30 °C. The IC50 value was calculated from the nonlinear curve fitting of the percent inhibition [inhibition (%)] vs. the inhibitor concentration using the Equation (1): Inhibition (%) = 100/[1 + (IC50/[I]k)] (1) where k is the Hill coefficient. To study the inhibition on the other PTPase family members, SHP1, SHP2 and LAR were prepared and assays were performed according to procedures described previously. Briefly, the enzymatic activity of the SHP1, SHP2 and LARwere determined at 30 °C by monitoring the dephosphorylation of substrate 3-o-methylfluorescein phosphate (OMFP), product was then detected at a 485 nm excitation wavelength and 530 nm emission wavelength by the EnVision multilabe plate reader (Perkin-Elmer Life Sciences, Boston, MA, USA). The assays were carried out in a final volume of 50 μL containing 50 mmol/L MOPS, pH 6.8, 10 μmol/L OMFP, 20 nmol/L recombinant enzyme, 2 mmol/L dithiothreitol , 1 mmol/L EDTA, and 2% DMSO. The initial rate of the dephosphorylation was presented by the early linear region of the enzymatic reaction kinetic curve, the inhibitory activity of the compound was continuously monitored.

SHP-2 = molecular target: T2, SHP-2 (Homo sapiens, UniProt Q06124); assay: SHP-2 inhibition, OMFP substrate assay; type: biochemical; conditions: for IC50: OMFP substrate, means ± SD of three replications, PC = Na3VO4
T2 construct: made in house
T2 sequence (Q06124 1-593): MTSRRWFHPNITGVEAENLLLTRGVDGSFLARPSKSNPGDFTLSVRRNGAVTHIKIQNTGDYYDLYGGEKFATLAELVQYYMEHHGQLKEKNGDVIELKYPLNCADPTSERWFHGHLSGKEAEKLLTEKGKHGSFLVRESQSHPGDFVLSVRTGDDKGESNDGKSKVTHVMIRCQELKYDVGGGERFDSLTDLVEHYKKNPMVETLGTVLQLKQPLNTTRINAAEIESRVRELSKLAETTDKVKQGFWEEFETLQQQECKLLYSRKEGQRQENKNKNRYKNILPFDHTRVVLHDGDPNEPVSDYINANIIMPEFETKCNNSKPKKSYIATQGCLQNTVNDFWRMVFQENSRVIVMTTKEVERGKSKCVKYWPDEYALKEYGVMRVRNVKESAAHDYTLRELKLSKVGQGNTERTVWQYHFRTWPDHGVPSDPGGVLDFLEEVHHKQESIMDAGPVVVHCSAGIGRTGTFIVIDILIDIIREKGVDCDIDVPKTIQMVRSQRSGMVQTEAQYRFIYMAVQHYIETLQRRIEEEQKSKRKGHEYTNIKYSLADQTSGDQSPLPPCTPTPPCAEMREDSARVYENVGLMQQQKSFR
Procedure: as §1, §2

TCPTP (GST-TCPTP) = molecular target: T3, TCPTP (GST-TCPTP) (Homo sapiens, UniProt P17706); assay: TCPTP inhibition, colorimetric pNPP assay; type: biochemical; conditions: for IC50: pNPP substrate, means ± SD of three replications, PC = oleanolic acid; for TCPTP/PTP1B (selectivity, fold): ratio of IC50 TCPTP to IC50 PTP1B
T3 sequence (P17706 1-415): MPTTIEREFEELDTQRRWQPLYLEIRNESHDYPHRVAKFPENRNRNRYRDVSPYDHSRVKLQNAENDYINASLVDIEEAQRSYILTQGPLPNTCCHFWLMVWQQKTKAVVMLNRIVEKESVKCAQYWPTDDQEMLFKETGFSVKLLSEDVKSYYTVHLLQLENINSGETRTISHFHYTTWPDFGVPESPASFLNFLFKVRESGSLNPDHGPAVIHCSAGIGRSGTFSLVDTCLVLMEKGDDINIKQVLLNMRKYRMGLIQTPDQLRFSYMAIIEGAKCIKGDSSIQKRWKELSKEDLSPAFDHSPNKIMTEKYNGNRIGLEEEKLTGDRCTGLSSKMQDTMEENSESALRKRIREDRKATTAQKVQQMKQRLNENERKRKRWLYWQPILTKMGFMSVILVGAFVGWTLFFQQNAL
Procedure: as §1, §2

LAR = molecular target: T4, LAR (Homo sapiens, UniProt P10586); assay: LAR inhibition, OMFP substrate assay; type: biochemical; conditions: NA = no activity (inhibitory ratio lower than 50% at the dose of 20 μg/mL), PC = Na3VO4
T4 sequence (P10586 1352-1607 limits assumed): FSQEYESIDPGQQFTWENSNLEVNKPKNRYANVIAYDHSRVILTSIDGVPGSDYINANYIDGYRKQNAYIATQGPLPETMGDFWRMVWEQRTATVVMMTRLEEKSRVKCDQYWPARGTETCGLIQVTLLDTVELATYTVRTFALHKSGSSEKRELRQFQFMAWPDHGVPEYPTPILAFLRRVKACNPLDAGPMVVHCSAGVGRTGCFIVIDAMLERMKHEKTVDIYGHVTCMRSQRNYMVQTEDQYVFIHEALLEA
Procedure: as §1
as §2, with “To study the inhibition on the other PTPase family members, SHP1, SHP2 and LAR were prepared and assays were performed according to procedures described previously.” left out, “The assays were carried out in a final volume of 50 μL containing 50 mmol/L MOPS, pH 6.8, 10 μmol/L OMFP, 20 nmol/L recombinant enzyme, 2 mmol/L dithiothreitol , 1 mmol/L EDTA, and 2% DMSO. The initial rate of the dephosphorylation was presented by the early linear region of the enzymatic reaction kinetic curve, the inhibitory activity of the compound was continuously monitored.” left out

PTP1B (GST-PTP1B) = molecular target: T5, PTP1B (GST-PTP1B) (Homo sapiens, UniProt P18031); assay: PTP1B inhibition, colorimetric pNPP assay; type: biochemical; conditions: pNPP substrate; for inhibition at 20 µg/mL: PTP1B, compound at 20 μg/mL
T5 sequence (P18031 1-435): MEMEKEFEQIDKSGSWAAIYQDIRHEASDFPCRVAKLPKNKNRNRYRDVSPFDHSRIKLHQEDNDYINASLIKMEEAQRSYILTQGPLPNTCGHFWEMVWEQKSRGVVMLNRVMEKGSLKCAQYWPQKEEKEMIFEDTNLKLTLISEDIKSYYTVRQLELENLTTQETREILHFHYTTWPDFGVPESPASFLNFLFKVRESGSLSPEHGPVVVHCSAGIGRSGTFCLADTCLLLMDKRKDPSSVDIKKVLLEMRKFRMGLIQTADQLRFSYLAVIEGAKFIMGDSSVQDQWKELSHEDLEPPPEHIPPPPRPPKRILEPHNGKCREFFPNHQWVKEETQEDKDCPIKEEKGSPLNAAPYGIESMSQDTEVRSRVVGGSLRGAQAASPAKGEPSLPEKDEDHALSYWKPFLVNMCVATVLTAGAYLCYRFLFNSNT

[1] = means ± SD of three replications, OA/PC = oleanolic acid positive control

T1 sequence (P29350 whole entry): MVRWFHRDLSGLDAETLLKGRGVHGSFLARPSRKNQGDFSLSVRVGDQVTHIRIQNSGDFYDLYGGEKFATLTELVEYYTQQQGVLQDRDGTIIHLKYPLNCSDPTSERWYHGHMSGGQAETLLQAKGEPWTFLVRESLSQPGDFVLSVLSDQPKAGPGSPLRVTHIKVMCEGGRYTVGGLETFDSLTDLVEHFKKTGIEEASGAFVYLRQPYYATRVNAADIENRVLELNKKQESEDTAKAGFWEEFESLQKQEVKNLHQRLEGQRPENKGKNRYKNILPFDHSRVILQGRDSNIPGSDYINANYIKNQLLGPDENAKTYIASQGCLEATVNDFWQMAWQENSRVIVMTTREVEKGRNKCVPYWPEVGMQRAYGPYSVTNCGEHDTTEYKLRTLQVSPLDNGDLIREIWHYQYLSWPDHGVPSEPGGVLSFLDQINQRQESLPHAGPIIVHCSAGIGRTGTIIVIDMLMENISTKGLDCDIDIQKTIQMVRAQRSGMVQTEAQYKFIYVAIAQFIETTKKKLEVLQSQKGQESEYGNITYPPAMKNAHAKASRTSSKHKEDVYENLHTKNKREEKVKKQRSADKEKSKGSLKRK

Row | Structure (SMILES) | melting point [°C] | IC50 (SHP-1) [µM] | selectivity for PTP1B over SHP-1 (SHP-1; from IC50 values) | IC50 (SHP-2) [µM] | selectivity for PTP1B over SHP-2 (SHP-2; from IC50 values) | IC50 (TCPTP (GST-TCPTP)) [µM] | TCPTP/PTP1B (selectivity, fold) (TCPTP (GST-TCPTP)) | IC50 LAR (LAR) | inhibition at 20 µg/mL (PTP1B (GST-PTP1B)) [%] | IC50 (PTP1B (GST-PTP1B); [1]) [µM] | IC50 PTP1B (PTP1B (GST-PTP1B); [1])
1 | O=C(O)CCCCCNC(=O)c1ccc(C2Nc3cccc4cccc(c34)N2)nc1 [Compound 49, 6-[6-(2,3-Dihydro-1H-perimidin-2-yl)nicotinamido]hexanoic acid] | 86.7 to 88.4 | 2.72 ± 0.3 | about 4 fold | 2.5 ± 0.22 | about 4 fold | 1.24 ± 0.12 | 2.10 | no visible activities | 99.4 | 0.59 ± 0.05 | submicromolar
2 | O=C(O)c1ccc(C2Nc3cccc4cccc(c34)N2)cc1 [Compound 1, 4-(2,3-dihydro-1H-perimidin-2-yl)benzoic acid] |  | 23.3 ± 2.03 |  | 31.2 ± 7.72 |  | 4.83 ± 0.9 | 0.58 |  | 98.6 | 8.34 ± 1.07 | 
